From EP3290412A1, “HIV-1 NUCLEOCAPSID INHIBITORS” (Università degli Studi di Siena, priority 2016, dated 2018)
pIC50: −log10 of the molar value. Where two headings read alike, the source gives them in different places.

How the values were obtained:
[1] = target: NC(11-55) (Human immunodeficiency virus type 1, UniProt P12493); assay: NC inhibition assay (NC-induced cTAR DNA destabilization, fluorescence); type: biochemical, HIV-1; settings: for inhibition at 100 µM: single point screening, positive = >25% inhibition at 100µM
Procedure, shortened: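 Doubly labelled cTAR (0.1 µM, Alexa488/Dabcyl) pre-complexed with 1 µM Zn-loaded NC(11-55) for 15 min, then compound added for a further 15 min; run at 20 °C in Tris-HCl pH 7.5, 30 mM NaCl, 0.2 mM MgCl2. Fluorescence read at ex 480/em 520 nm. IC50 taken from dose-response fit of % inhibition of NC-induced fluorescence increase.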

[2] = tested on: HIV-1 reference strain NL4-3; assay: MonoCycle assay (TZM-bl cells); type: cell-based; settings: for IC50: Human immunodeficiency virus 1, NL43, TZM-bl, 48 h, read-out: Mono Cycle IC50 nM; for pIC50: Human immunodeficiency virus 1, NL43, TZM-bl cells, NL4-3, 48 hours, read-out: Mono Cycle IC50
Procedure: MonoCycle assay is a cell based assay allowing the evaluation of antiviral activity of HIV-1 inhibitors targeting the early steps of HIV-1 life cycle such as entry, uncoating of viral particles, reverse transcription and integration. The assay consists in the infection of TZM-bl cells (20,000/well) with the HIV-1 reference strain NL4-3 in presence of serial five-fold dilutions of the investigational inhibitors. After 48 hours, cells were lysed adding 40 µl of Glo Lysis Buffer (Promega) to each well for 5 minutes, then 40 µl of Brighy-Glo Luciferase Reagent (Promega) were added to each well for relative luminescence units (RLU) counting using Glo-Max Multi Detection System (Promega). RLU values from each well were elaborated using the GraphPad v5.0 software to calculate the IC50 of each compound.

Structure (SMILES) | pIC50 [1] | inhibition at 100 µM [1] [%] | IC50 [2] [nM] | pIC50 [2] | pIC50 ([1]; cTAR DNA 0.1 µM, 1 µM NC(11-55), 20 °C, pH 7.5, read-out: NC inhibition IC50)
C[C@H](NC(=O)c1nc(-c2nccc3ccccc23)nc(O)c1O)C1CCCCC1 [Compound 80, (S)-N-(1-cyclohexylethyl)-5,6-dihydroxy-2-(isoquinolin-1-yl)pyrimidine-4-carboxamide] | 4.96 | > 25 | 2850 |  | 
C[C@@H](NC(=O)c1nc(-c2cc(OCc3ccccc3)ccn2)nc(O)c1O)C1CCCCC1 [Compound 35, (R)-2-(4-(benzyloxy)pyridin-2-yl)-N-(1-cyclohexylethyl)-5,6-dihydroxypyrimidine-4-carboxamide] |  | > 25 |  | < 4.30 | 
C[C@@H](NC(=O)c1nc(-c2ccc(CNCc3ccccc3)cn2)nc(O)c1O)C1CCCCC1 [Compound 53, (R)-2-(5-((benzylamino)methyl)pyridin-2-yl)-N-(1-cyclohexylethyl)-5,6-dihydroxypyrimidine-4-carboxamide] | 5.12 | > 25 | 38100 |  | 
C[C@@H](NC(=O)c1nc(-c2ncccc2C(F)(F)F)nc(O)c1O)C1CCCCC1 [Compound 30, (R)-N-(1-cyclohexylethyl)-5,6-dihydroxy-2-(3-(trifluoromethyl)pyridin-2-yl)pyrimidine-4-carboxamide] |  | > 25 |  | < 4.30 | 
O=C(NCCCC1CCCCC1)c1nc(-c2ccccn2)nc(O)c1O [Compound 8, N-(3-cyclohexylpropyl)-5,6-dihydroxy-2-(pyridin-2-yl)pyrimidine-4-carboxamide] | 4.56 | > 25 | 4540 |  | 
C[C@@H](NC(=O)c1nc(-c2ccc(Cl)cn2)nc(O)c1O)C1CCCCC1 [Compound 49, (R)-2-(5-chloropyridin-2-yl)-N-(1-cyclohexylethyl)-5,6-dihydroxypyrimidine-4-carboxamide] | 5.05 | > 25 | 10900 |  | 
COc1ccnc(-c2nc(O)c(O)c(C(=O)N[C@@H](C)C3CCCCC3)n2)c1 [Compound 69, N-[(1S)-1-cyclohexylethyl]-2-(4-methoxypyridin-2-yl)-5,6-bis(oxidanyl)pyrimidine-4-carboxamide] | 4.31 | > 25 | > 50000 |  | 
C[C@H](NC(=O)c1nc(-c2ccc(N)cn2)nc(O)c1O)C1CCCCC1 [Compound 81, (S)-2-(5-aminopyridin-2-yl)-N-(1-cyclohexylethyl)-5,6-dihydroxypyrimidine-4-carboxamide] | 4.66 | > 25 | 2290 |  | 
COc1ccc(-c2nc(O)c(O)c(C(=O)N[C@H](C)C3CCCCC3)n2)nc1 [Compound 32, (R)-N-(1-cyclohexylethyl)-5,6-dihydroxy-2-(5-methoxypyridin-2-yl)pyrimidine-4-carboxamide] | 4.35 | > 25 | 8260 |  | 
COc1cc(-c2nc(O)c(O)c(C(=O)N[C@H](C)C3CCCCC3)n2)nc2ccccc12 [Compound 68, N-[(1R)-1-cyclohexylethyl]-2-(4-methoxyquinolin-2-yl)-5,6-bis(oxidanyl)pyrimidine-4-carboxamide] |  | > 25 |  | 4.35 | 
O=C(NCCC1CCCCC1)c1nc(-c2ccccn2)nc(O)c1O [Compound 6, N-(2-cyclohexylethyl)-5,6-dihydroxy-2-(pyridin-2-yl)pyrimidine-4-carboxamide] | 4.43 | > 25 | 4300 |  | 
CC(OC(=O)c1nc(-c2ccccn2)nc(O)c1O)C1CCCCC1 (stereo not drawn) [Compound 17, 1-cyclohexylethyl 5,6-dihydroxy-2-(pyridin-2-yl)pyrimidine-4-carboxylate] | 4.05 | > 25 | > 50000 |  | 
O=C(OCCC1CCCCC1)c1nc(-c2ccccn2)nc(O)c1O [Compound 12, 2-cyclohexylethyl 5,6-dihydroxy-2-(pyridin-2-yl)pyrimidine-4-carboxylate] | 4.24 | > 25 | > 50000 |  | 
C[C@@H](NC(=O)c1nc(-c2ccc(C(F)(F)F)cn2)nc(O)c1O)C1CCCCC1 [Compound 36, (R)-N-(1-cyclohexylethyl)-5,6-dihydroxy-2-(5-(trifluoromethyl)pyridin-2-yl)pyrimidine-4-carboxamide] | 4.65 | > 25 | 45400 |  | 
Cc1cccc(-c2nc(O)c(O)c(C(=O)N[C@H](C)C3CCCCC3)n2)n1 [Compound 18, (R)-N-(1-cyclohexylethyl)-5,6-dihydroxy-2-(6-methylpyridin-2-yl)pyrimidine-4-carboxamide] | 4.70 | > 25 | 37300 |  | 
C[C@@H](NC(=O)c1nc(-c2ccccn2)nc(O)c1O)C1CCCCC1 [Compound 5, (R)-N-(1-cyclohexylethyl)-5,6-dihydroxy-2-(pyridin-2-yl)pyrimidine-4-carboxamide] | 4.37 | > 25 | 2490 |  | 
O=C(NC1(C2CCCCC2)CC1)c1nc(-c2ccccn2)nc(O)c1O [Compound 24, N-(1-cyclohexylcyclopropyl)-5,6-dihydroxy-2-(pyridin-2-yl)pyrimidine-4-carboxamide] | 4.65 | > 25 | 3610 |  | 
CC(=O)Nc1ccc(-c2nc(O)c(O)c(C(=O)N[C@H](C)C3CCCCC3)n2)nc1 [Compound 62, (R)-2-(5-acetamidopyridin-2-yl)-N-(1-cyclohexylethyl)-5,6-dihydroxypyrimidine-4-carboxamide] | 4.81 | > 25 | > 50000 |  | 
C[C@H](CC1CCCCC1)NC(=O)c1nc(-c2ccccn2)nc(O)c1O [Compound 64, (R)-N-(1-cyclohexylpropan-2-yl)-5,6-dihydroxy-2-(pyridin-2-yl)pyrimidine-4-carboxamide] | 4.84 | > 25 | 23700 |  | 
C[C@@H](NC(=O)c1nc(-c2ccc(CN3CCCC3)cn2)nc(O)c1O)C1CCCCC1 [Compound 93, (R)-N-(1-cyclohexylethyl)-5,6-dihydroxy-2-(5-(pyrrolidin-1-ylmethyl)pyridin-2-yl)pyrimidine-4-carboxamide] | 4.30 | > 25 | > 50000 |  | 
C[C@@H](NC(=O)c1nc(-c2cc(CCN(C)C)ccn2)nc(O)c1O)C1CCCCC1 [Compound 92, (R)-N-(1-cyclohexylethyl)-2-(4-(2-(dimethylamino)ethyl)pyridin-2-yl)-5,6-dihydroxypyrimidine-4-carboxamide] | 5.00 | > 25 | 6120 |  | 
C[C@@H](NC(=O)c1nc(-c2cc(CCNCc3cccn3C)ccn2)nc(O)c1O)C1CCCCC1 [Compound 91, (R)-N-(1-cyclohexylethyl)-5,6-dihydroxy-2-(4-(2-(((1-methyl-1H-pyrrol-2-yl)methyl)amino)ethyl)pyridin-2-yl)pyrimidine-4-carboxamide] | 4.92 | > 25 | 2150 |  | 
Cc1cccnc1-c1nc(O)c(O)c(C(=O)N[C@H](C)C2CCCCC2)n1 [Compound 23, (R)-N-(1-cyclohexylethyl)-5,6-dihydroxy-2-(3-methylpyridin-2-yl)pyrimidine-4-carboxamide] | 4.69 | > 25 | 88500 |  | 
CC1CCCCC1NC(=O)c1nc(-c2ccccn2)nc(O)c1O (stereo not drawn) [Compound 59, 5,6-dihydroxy-N-(2-methylcyclohexyl)-2-(pyridin-2-yl)pyrimidine-4-carboxamide] | 4.30 | > 25 | > 50000 |  | 
C[C@@H](NC(=O)c1nc(-c2cc(C(F)(F)F)ccn2)nc(O)c1O)C1CCCCC1 [Compound 27, (R)-N-(1-cyclohexylethyl)-5,6-dihydroxy-2-(4-(trifluoromethyl)pyridin-2-yl)pyrimidine-4-carboxamide] | 4.90 | > 25 | > 50000 |  | 
Cc1cccnc1-c1nc(O)c(O)c(C(=O)OCC2CCCCC2)n1 [Compound 10, cyclohexylmethyl 5,6-dihydroxy-2-(3-methylpyridin-2-yl)pyrimidine-4-carboxylate] | 4.26 | > 25 | > 50000 |  | 
C[C@@H](NC(=O)c1nc(-c2ccc(CO)cn2)nc(O)c1O)C1CCCCC1 [Compound 55, (R)-N-(1-cyclohexylethyl)-5,6-dihydroxy-2-(5-(hydroxymethyl)pyridin-2-yl)pyrimidine-4-carboxamide] |  | > 25 | 9050 |  | 4.40
COc1cccc(-c2nc(O)c(O)c(C(=O)N[C@H](C)C3CCCCC3)n2)n1 [Compound 37, (R)-N-(1-cyclohexylethyl)-5,6-dihydroxy-2-(6-methoxypyridin-2-yl)pyrimidine-4-carboxamide] | 4.54 | > 25 | 6910 |  | 
Cc1cccnc1-c1nc(O)c(O)c(C(=O)N[C@@H](C)C2CCCCC2)n1 [Compound 39, (S)-N-(1-cyclohexylethyl)-5,6-dihydroxy-2-(3-methylpyridin-2-yl)pyrimidine-4-carboxamide] | 4.57 | > 25 | > 50000 |  | 
